Columns and labels:
lymphoma = assay: Therapy of lymphoma in a human patient after pretargeting of enzyme conjugates; format: in vivo; conditions: 10 mg i.v. after pretargeted Fab′-glucuronidase and esterase conjugates; compared to 10 mg epirubicin prior to targeting
Protocol: A human patient suffering from lymphoma is infused intravenously with a sterile, pyrogen-free PBS solution containing 5 mg each of the 1-13 1-labeled anti-lymphoma Fab′-glucuronidase and esterase conjugates prepared according to Example 1 hereof.
The patient is then infused intravenously with a sterile, pyrogen-free PBS solution containing 10 mg of epirubicin methyl ester.

[1] = pretreatment of rats; cited from earlier work
[2] = tested on: uridine diphosphate glucuronosyl transferase (UDP-GT); conditions: pretreatment of rats; cited from earlier work
colorectal cancer = assay: Tumor therapy of colorectal cancer patient with bsMAb, DTPA-enzyme conjugates and CPT-11; format: in vivo, human; conditions: then standard dose CPT-11
Protocol: A patient with colorectal cancer is given an injection of the bsMAb comprised of an […]-14 cross-linked with an anti-DTPA Fab' fragment, prepared according to Example 3. After 48 h to allow for maximum accretion in tumors, an amount of galactose-[…], prepared according to Example 4, sufficient to clear nearly all non-target-bound MN-14-IgG ×734-Fab' from the circulation is administered. This amount is between 5 and 15 times the amount of primary bsMAb remaining in circulation at the time-point specified. Three hours after administration of the galactose-[…], a tumor-saturating amount of a mixture of the DTPA-CE and […] conjugates is given, and allowed to clear circulation and normal tissues. […] A patient with colorectal cancer is given an injection of the bsMAb as in Example 6. After 48 h to allow for maximum accretion in tumors, an excess amount of same mixture of the DTPA-CE and DTPA-glucuronidase conjugates as in Example 6 is given. Three hours later an amount of galactose-[…] sufficient to clear nearly all non-target-bound […]-IgG ×734-Fab'-DTPA-enzymes from the circulation is administered. This amount is between 5 and 15 times the amount of primary bsMAb complexes remaining in circulation at the time-point specified.

[3] = biological target: T1, human beta-D-glucuronidase (Homo sapiens, UniProt P08236); conditions: cited from earlier work
T1 sequence (P08236 23-651): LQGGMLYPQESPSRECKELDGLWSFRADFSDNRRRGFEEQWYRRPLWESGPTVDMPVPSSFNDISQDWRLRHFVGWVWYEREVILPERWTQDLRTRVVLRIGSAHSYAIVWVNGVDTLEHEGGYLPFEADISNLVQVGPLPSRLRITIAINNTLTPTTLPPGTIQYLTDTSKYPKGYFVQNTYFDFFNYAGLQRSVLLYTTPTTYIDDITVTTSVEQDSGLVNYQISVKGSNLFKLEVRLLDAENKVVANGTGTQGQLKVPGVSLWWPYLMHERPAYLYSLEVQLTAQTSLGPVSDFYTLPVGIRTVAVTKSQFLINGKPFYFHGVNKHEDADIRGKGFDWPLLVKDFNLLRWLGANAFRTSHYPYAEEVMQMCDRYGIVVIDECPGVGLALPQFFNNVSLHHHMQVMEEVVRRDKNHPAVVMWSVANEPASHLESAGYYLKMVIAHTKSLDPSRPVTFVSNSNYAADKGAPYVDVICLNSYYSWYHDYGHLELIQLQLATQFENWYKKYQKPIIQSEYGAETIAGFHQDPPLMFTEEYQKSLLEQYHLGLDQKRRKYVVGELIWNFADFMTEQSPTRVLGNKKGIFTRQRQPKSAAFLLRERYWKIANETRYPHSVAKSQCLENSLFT

epirubicin methyl ester
reduction in the lymphoma by radioimmunodetection (lymphoma): significant reduction in the lymphoma

CCCC(CCC)C(=O)O [valproic acid]
AUC for SN-38 from subsequently-administered CPT-11 [1]: 270% | formation of SN-38G [2]: inhibited the formation of SN-38G

CCc1c2c(nc3ccc(OC(=O)N4CCC(N5CCCCC5)CC4)cc13)-c1cc3c(c(=O)n1C2)COC(=O)[C@]3(O)CC [CPT-11, irinotecan]
effect on tumors (colorectal cancer; Example 6: bsMAb, galactose-W12 clearing, then DTPA-enzyme conjugates): destroying the tumors | effect on tumors (colorectal cancer; Example 7: bsMAb, DTPA-enzyme conjugates, then galactose-W12 clearing): destroying said tumors

COc1cccc2c1C(=O)c1c(O)c3c(c(O)c1C2=O)C[C@@](O)(C(=O)CO)C[C@@H]3O[C@H]1C[C@H](N)[C@@H](O)[C@H](C)O1 [epirubicin]
substrate for human beta-D-glucuronidase [3]: substrate for human beta-D-glucuronidase

Reference: patent publication US7470429B2, “Methods and compositions for increasing the target-specific toxicity of a chemotherapy drug” (priority 1998, dated 2008)
